The values that follow come from PMC8944975, “Secretin Receptor as a Target in Gastrointestinal Cancer: Expression Analysis and Ligand Development” (Biomedicines, 2022).

The target of this assay is human SCTR (Homo sapiens, UniProt P47872). Description: agonist-induced β-arr2-GFP translocation. The class given is cell-based. Also on record: expressed in transfected cells; host or cells: U2OS (human osteosarcoma), stably co-transfected with β-arrestin2-GFP. The note with it: for β-arrestin2-GFP agonism efficacy / EC50: Supplementary Tables S1 and S2, decimal comma, '-' not detectable (Figure 4); for β-arrestin2-GFP agonism efficacy: % of wild-type secretin; for EC50: 20 min at 37 °C, mean of at least three independent experiments in duplicates, read-out: β-arrestin2-GFP agonism potency. From the text: U2OS-SCTR/β-arr2-GFP: human osteosarcoma cell line U2OS (purchased from ATCC/LGC Standards, Wesel, Germany) were stably transfected with plasmids encoding SCTR (Homo sapiens) and the fusion protein β-arrestin2-green fluorescent protein (GFP) (Rattus norvegicus-Aequorea victoria) (β-arr2-GFP).
Chain of human SCTR (P47872 23-440): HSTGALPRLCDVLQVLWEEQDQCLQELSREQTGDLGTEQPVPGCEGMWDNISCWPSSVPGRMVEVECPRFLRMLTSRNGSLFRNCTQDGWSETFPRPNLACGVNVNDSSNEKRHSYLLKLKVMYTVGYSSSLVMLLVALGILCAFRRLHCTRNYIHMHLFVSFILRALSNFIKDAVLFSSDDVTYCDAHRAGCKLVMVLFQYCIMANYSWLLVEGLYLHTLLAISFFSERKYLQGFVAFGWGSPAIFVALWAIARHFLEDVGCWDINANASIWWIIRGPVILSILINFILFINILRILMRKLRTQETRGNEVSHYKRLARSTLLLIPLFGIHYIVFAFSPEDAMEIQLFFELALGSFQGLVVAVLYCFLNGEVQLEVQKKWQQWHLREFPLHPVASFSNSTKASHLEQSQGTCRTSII
To evaluate reactivity of human SCTR exposed to different ligand variants, intracellular translocation of a fusion protein of β-arrestin2 and green fluorescent protein was utilized. For evaluation of activation, receptor-mediated recruitment of cytoplasmic β-arr2-GFP was monitored through its translocation into condensed intracellular vesicles. The extent of translocation events was quantified by determining the increasing granularization of the intracellular fluorescence utilizing an automated high-throughput microscope in combination with computational algorithms to estimate potency (EC50) and efficacy, thus characterizing ligand-SCTR interaction. U2OS-SCTR/β-arr2-GFP cells were seeded in 96-well cell culture plates to 60–80% confluence. On the following day, preceding stimulation, cells were incubated for one hour in serum-free medium. Ligand variants were applied as serial dilutions in assay buffer C1. After preincubation, supernatant was discarded by tapping plates overhead repeatedly. For stimulation, 50 µL of ligand dilution was applied per well in duplicates and incubated for 20 min at 37 °C. Successively, cells were fixed by applying 4% buffered formaldehyde (Herbeta Arzneimittel, Berlin, Germany) for 10 min at room temperature and consecutively permeabilized for 10 min at room temperature with 0.1% TritonX-100 in PBS, containing DAPI (4′,6-Diamidin-2-phenylindol, SigmaAldrich, Deisenhofen, Germany, 1 µg/mL) to counterstain nuclei. Microscopic images were recorded by an IN Cell Analyzer 1000 (GE Healthcare, Reading, UK) with 20× magnification at 5 frames per well in a 96-well format. Image processing was performed with IN Cell Investigator software (GE Healthcare, Reading, UK), applying the provided granularity algorithm. The output of the analysis was indicated as vesicle area/cell and was utilized for calculation of concentration–response curves. Parameters derived from curve fitting included the concentration of half-maximal activity (EC50), and intrinsic activity. Intrinsic activity was normalized defining reaction to non-modified wild type secretin as the 100% curve maximum value.

For the compound `CC(C)C[C@H](NC(=O)[C@H](CCCNC(=N)N)NC(=O)[C@H](C)NC(=O)CNC(=O)[C@H](CCC(=O)O)NC(=O)[C@H](CCCNC(=N)N)NC(=O)[C@H](CC(C)C)NC(=O)[C@H](CCCNC(=N)N)NC(=O)[C@H](CO)NC(=O)[C@H](CC(C)C)NC(=O)[C@H](CCC(=O)O)NC(=O)[C@H](CO)NC(=O)[C@@H](NC(=O)[C@H](Cc1ccccc1)NC(=O)[C@@H](NC(=O)CNC(=O)[C@H](CC(=O)O)NC(=O)[C@H](CO)NC(=O)[C@@H](N)Cc1c[nH]cn1)[C@@H](C)O)[C@@H](C)O)C(=O)N[C@@H](CCC(N)=O)C(=O)N[C@@H](CCCNC(=N)N)C(=O)N[C@@H](CC(C)C)C(=O)N[C@@H](CC(C)C)C(=O)N[C@@H](CCC(N)=O)C(=O)NCC(=O)N1CCC[C@H]1C(=O)N[C@H](C(=O)O)C(C)C` [Peptide 84], the β-arrestin2-GFP agonism efficacy is listed as 95,03 % Sec. Further, under “U2OS-SCTR/β-arr2-GFP cells”, the EC50 worked out at 72.6 nM. As for `CC(C)C[C@H](NC(=O)[C@H](CCCNC(=N)N)NC(=O)[C@H](C)NC(=O)CNC(=O)[C@H](CCC(=O)O)NC(=O)[C@H](CCCNC(=N)N)NC(=O)[C@H](CC(C)C)NC(=O)[C@H](CCCNC(=N)N)NC(=O)[C@H](CO)NC(=O)[C@H](CC(C)C)NC(=O)[C@H](CCC(=O)O)NC(=O)[C@H](CO)NC(=O)[C@@H](NC(=O)[C@H](Cc1ccccc1)NC(=O)[C@@H](NC(=O)CNC(=O)[C@H](CC(=O)O)NC(=O)[C@H](CO)NC(=O)[C@@H](N)Cc1c[nH]cn1)[C@@H](C)O)[C@@H](C)O)C(=O)N[C@@H](CCC(N)=O)C(=O)N[C@@H](CCCNC(=N)N)C(=O)N[C@@H](CC(C)C)C(=O)N[C@@H](CC(C)C)C(=O)N[C@@H](CCC(N)=O)C(=O)NCC(=O)N[C@@H](CC(C)C)C(=O)N1CCC[C@H]1C(=O)O` [Peptide 85], the β-arrestin2-GFP agonism efficacy is reported as 100,47 % Sec. The EC50 (U2OS-SCTR/β-arr2-GFP cells) stood at 5.19 nM. Take `CC(C)C[C@H](NC(=O)CNC(=O)[C@H](CCC(N)=O)NC(=O)[C@H](CC(C)C)NC(=O)[C@H](CC(C)C)NC(=O)[C@H](CCCNC(=N)N)NC(=O)[C@H](CCC(N)=O)NC(=O)[C@H](CC(C)C)NC(=O)[C@H](CCCNC(=N)N)NC(=O)[C@H](C)NC(=O)CNC(=O)[C@H](CCC(=O)O)NC(=O)[C@H](CCCNC(=N)N)NC(=O)[C@H](CC(C)C)NC(=O)[C@H](CCCNC(=N)N)NC(=O)[C@H](CO)NC(=O)[C@H](CC(C)C)NC(=O)[C@H](CCC(=O)O)NC(=O)[C@H](CO)NC(=O)[C@@H](NC(=O)[C@H](Cc1ccccc1)NC(=O)[C@@H](NC(=O)CNC(=O)[C@H](CC(=O)O)NC(=O)[C@H](CO)NC(=O)[C@H](N)Cc1c[nH]cn1)[C@@H](C)O)[C@@H](C)O)C(=O)N[C@H](C(=O)O)C(C)C` [Peptide 86]: the β-arrestin2-GFP agonism efficacy is 107,20 % Sec. On the same count and under the same terms, under `CC(C)C[C@H](NC(=O)CNC(=O)[C@H](CCC(N)=O)NC(=O)[C@H](CC(C)C)NC(=O)[C@H](CC(C)C)NC(=O)[C@H](CCCNC(=N)N)NC(=O)[C@H](CCC(N)=O)NC(=O)[C@H](CC(C)C)NC(=O)[C@H](CCCNC(=N)N)NC(=O)[C@H](C)NC(=O)CNC(=O)[C@H](CCC(=O)O)NC(=O)[C@H](CCCNC(=N)N)NC(=O)[C@H](CC(C)C)NC(=O)[C@H](CCCNC(=N)N)NC(=O)[C@H](CO)NC(=O)[C@H](CC(C)C)NC(=O)[C@H](CCC(=O)O)NC(=O)[C@H](CO)NC(=O)[C@@H](NC(=O)[C@H](Cc1ccccc1)NC(=O)[C@@H](NC(=O)CNC(=O)[C@H](CC(=O)O)NC(=O)[C@@H](CO)NC(=O)[C@@H](N)Cc1c[nH]cn1)[C@@H](C)O)[C@@H](C)O)C(=O)N[C@H](C(=O)O)C(C)C` [Peptide 87] stands 91,57 % Sec; under `CC(C)C[C@H](NC(=O)CNC(=O)[C@H](CCC(N)=O)NC(=O)[C@H](CC(C)C)NC(=O)[C@H](CC(C)C)NC(=O)[C@H](CCCNC(=N)N)NC(=O)[C@H](CCC(N)=O)NC(=O)[C@H](CC(C)C)NC(=O)[C@H](CCCNC(=N)N)NC(=O)[C@H](C)NC(=O)CNC(=O)[C@H](CCC(=O)O)NC(=O)[C@H](CCCNC(=N)N)NC(=O)[C@H](CC(C)C)NC(=O)[C@H](CCCNC(=N)N)NC(=O)[C@H](CO)NC(=O)[C@H](CC(C)C)NC(=O)[C@H](CCC(=O)O)NC(=O)[C@H](CO)NC(=O)[C@@H](NC(=O)[C@H](Cc1ccccc1)NC(=O)[C@@H](NC(=O)CNC(=O)[C@@H](CC(=O)O)NC(=O)[C@H](CO)NC(=O)[C@@H](N)Cc1c[nH]cn1)[C@@H](C)O)[C@@H](C)O)C(=O)N[C@H](C(=O)O)C(C)C` [Peptide 88], 89,07 % Sec. The same measure, in the same setting: for `CC(C)C[C@H](NC(=O)CNC(=O)[C@H](CCC(N)=O)NC(=O)[C@H](CC(C)C)NC(=O)[C@H](CC(C)C)NC(=O)[C@H](CCCNC(=N)N)NC(=O)[C@H](CCC(N)=O)NC(=O)[C@H](CC(C)C)NC(=O)[C@H](CCCNC(=N)N)NC(=O)[C@H](C)NC(=O)CNC(=O)[C@H](CCC(=O)O)NC(=O)[C@H](CCCNC(=N)N)NC(=O)[C@H](CC(C)C)NC(=O)[C@H](CCCNC(=N)N)NC(=O)[C@H](CO)NC(=O)[C@H](CC(C)C)NC(=O)[C@H](CCC(=O)O)NC(=O)[C@H](CO)NC(=O)[C@@H](NC(=O)[C@H](Cc1ccccc1)NC(=O)[C@H](NC(=O)CNC(=O)[C@H](CC(=O)O)NC(=O)[C@H](CO)NC(=O)[C@@H](N)Cc1c[nH]cn1)[C@H](C)O)[C@@H](C)O)C(=O)N[C@H](C(=O)O)C(C)C` [Peptide 89] the value was 102,97 % Sec. Still for that read-out and setting: under `CC(C)C[C@H](NC(=O)CNC(=O)[C@H](CCC(N)=O)NC(=O)[C@H](CC(C)C)NC(=O)[C@H](CC(C)C)NC(=O)[C@H](CCCNC(=N)N)NC(=O)[C@H](CCC(N)=O)NC(=O)[C@H](CC(C)C)NC(=O)[C@H](CCCNC(=N)N)NC(=O)[C@H](C)NC(=O)CNC(=O)[C@H](CCC(=O)O)NC(=O)[C@H](CCCNC(=N)N)NC(=O)[C@H](CC(C)C)NC(=O)[C@H](CCCNC(=N)N)NC(=O)[C@H](CO)NC(=O)[C@H](CC(C)C)NC(=O)[C@@H](CCC(=O)O)NC(=O)[C@H](CO)NC(=O)[C@@H](NC(=O)[C@H](Cc1ccccc1)NC(=O)[C@@H](NC(=O)CNC(=O)[C@H](CC(=O)O)NC(=O)[C@H](CO)NC(=O)[C@@H](N)Cc1c[nH]cn1)[C@@H](C)O)[C@@H](C)O)C(=O)N[C@H](C(=O)O)C(C)C` [Peptide 93] stands 100,40 % Sec. For the compound `CC(C)C[C@H](NC(=O)CNC(=O)[C@H](CCC(N)=O)NC(=O)[C@H](CC(C)C)NC(=O)[C@H](CC(C)C)NC(=O)[C@H](CCCNC(=N)N)NC(=O)[C@H](CCC(N)=O)NC(=O)[C@H](CC(C)C)NC(=O)[C@H](CCCNC(=N)N)NC(=O)[C@H](C)NC(=O)CNC(=O)[C@H](CCC(=O)O)NC(=O)[C@H](CCCNC(=N)N)NC(=O)[C@H](CC(C)C)NC(=O)[C@H](CCCNC(=N)N)NC(=O)[C@H](CO)NC(=O)[C@@H](CC(C)C)NC(=O)[C@H](CCC(=O)O)NC(=O)[C@H](CO)NC(=O)[C@@H](NC(=O)[C@H](Cc1ccccc1)NC(=O)[C@@H](NC(=O)CNC(=O)[C@H](CC(=O)O)NC(=O)[C@H](CO)NC(=O)[C@@H](N)Cc1c[nH]cn1)[C@@H](C)O)[C@@H](C)O)C(=O)N[C@H](C(=O)O)C(C)C` [Peptide 94], the β-arrestin2-GFP agonism efficacy is 94,17 % Sec.

Regarding `CC(C)C[C@H](NC(=O)[C@H](CCCNC(=N)N)NC(=O)[C@H](C)NC(=O)CNC(=O)[C@H](CCC(=O)O)NC(=O)[C@H](CCCNC(=N)N)NC(=O)[C@H](CC(C)C)NC(=O)[C@H](CCCNC(=N)N)NC(=O)[C@H](CO)NC(=O)[C@H](CC(C)C)NC(=O)[C@H](CCC(=O)O)NC(=O)[C@H](CO)NC(=O)[C@@H](NC(=O)[C@H](Cc1ccccc1)NC(=O)[C@@H](NC(=O)CNC(=O)[C@H](CC(=O)O)NC(=O)[C@H](CO)NC(=O)[C@@H](N)Cc1c[nH]cn1)[C@@H](C)O)[C@@H](C)O)C(=O)N[C@@H](CCC(N)=O)C(=O)N[C@@H](CCCNC(=N)N)C(=O)N[C@@H](CC(C)C)C(=O)N[C@@H](CC(C)C)C(=O)N[C@@H](CCC(N)=O)C(=O)NCC(=O)N[C@H](CC(C)C)C(=O)N[C@H](C(=O)O)C(C)C` [Peptide 95], the β-arrestin2-GFP agonism efficacy is listed as 101,90 % Sec.

Consider “GLP-2: structurally related glucagon-like peptide 2 [reference compound]”, for which the “SCTR activation (agonism) in the β-arr2-GFP translocation assay, in words” value (U2OS-SCTR/β-arr2-GFP cells) is “no SCTR activation”. With “HSDGTFTsELSRLREGARLQRLLQGLV [Peptide 92, D-amino acid substitution variant of human secretin]”, the β-arrestin2-GFP agonism efficacy is 90,37 % Sec. On the same count and under the same terms, for “HSDGTFtSELSRLREGARLQRLLQGLV [Peptide 91, D-amino acid substitution variant of human secretin]” the value was 98,33 % Sec.
